Values of other authors in the CATMoS acute toxicity set (Mansouri et al. 2021).
Where “and” joins values, the source holds several entries; their conditions need not be identical. Identical values can stand only once.

experiment: rat acute oral toxicity; conditions: in vivo

Compound | LD50
CCCOc1ccc(C(CN(C)C)C(C)CC)cc1Cl (stereo not given) | 741 mg/kg
O=C1CCCN1CCO | 14400 mg/kg
c1ccc(C2CC(N3CCCC3)CC(c3ccccc3)C2c2ccccn2)cc1 (stereo not given) | 479 mg/kg
O=C(CS)OCCOC(=O)CS | 330 mg/kg
Cc1n[nH]c(=O)c2noc(C)c12 | 1000 mg/kg
N=C(N)NCCN1CCCCCCC1 | 1050 mg/kg
CC(C)(Oc1ccc(CCNC(=O)c2ccc(Cl)cc2)cc1)C(=O)O | 1080 mg/kg
CC(C)CC(O)CC(CC(C)C)CC(C)C (stereo not given) | 16300 mg/kg
OC(CCCN1CCCCC1)(c1ccccc1)c1ccccc1 | 515 mg/kg
CC(CC1c2ccccc2CCc2ccccc21)CN(C)C (stereo not given) | 700 mg/kg
Cc1ccc(S(=O)(=O)O)cc1 | 2570 mg/kg
CCN(Cc1ccncc1)C(=O)C(CO)c1ccccc1 (stereo not given) | 865 mg/kg
COP(=S)(OC)C(C(=O)O)c1ccccc1 (stereo not given) | 4500 mg/kg
CCc1ccc(C)nc1 | 368 mg/kg
C[N+]1(CCC(C(N)=O)(c2ccccc2)c2ccccc2)CCCCCC1 | 2800 mg/kg
COC1C(O)CC(=O)OC(C)CC=CC=CC(OC2CCC(N(C)C)C(C)O2)C(C)CC(CC=O)C1OC1OC(C)C(OC2CC(C)(O)C(O)C(C)O2)C(N(C)C)C1O (stereo not given) | 4650 mg/kg
CC1=CCC(=O)O1 | 3900 mg/kg
Cn1c(=O)c2c(ncn2CCNCc2cccnc2)n(C)c1=O | 3700 mg/kg
O=[N+]([O-])c1ccc(Nc2ccc(O)cc2)c([N+](=O)[O-])c1 | 15600 mg/kg
CC(O)CC=O (stereo not given) | 2180 mg/kg
C[N+]12CCC(c3ccccc3)(CC1)C(=O)C2 | 1480 mg/kg
Nc1cccc(C(F)(F)F)c1 | 480 mg/kg
Cn1c2c(c(=O)n1-c1ccccc1)CCCC2 | 1500 mg/kg
CCN(C(C)=O)c1c(I)cc(I)c(OCCOC(C)C(=O)O)c1I (stereo not given) | 1600 mg/kg

Compound | LD50
CCOP(=S)(OCC)Oc1ccc([N+](=O)[O-])c(Cl)c1 | 50 mg/kg
CCC(Cc1c(I)cc(I)c(N)c1I)C(=O)O (stereo not given) | 2990 mg/kg and 1540 mg/kg
CCCOP(=S)(OCCC)Oc1cnn(C)c(=O)c1OC | 26 mg/kg
CON=Cc1ccc(OCC(O)(Cn2cncn2)C(C)(C)C)cc1 (stereo not given) | 921 mg/kg
CCCCCCC=NO | 1040 mg/kg
CCCCC(CC)COP(OCC(CC)CCCC)OCC(CC)CCCC (stereo not given) | 6200 mg/kg
Cc1ccc(-c2ccccc2)cc1 | 2570 mg/kg
O=C(O)CCCc1ccc(N(CCCl)CCCl)cc1 | 76 mg/kg
CCOC(=O)Cc1ccc(-c2ccccc2)cc1 | 385 mg/kg
CC(=O)CCC(C)=O | 2080 mg/kg
O=C=Nc1ccc([N+](=O)[O-])cc1 | 1600 mg/kg
Cc1cc(C)c(C2C(=O)c3ccccc3C2=O)c(C)c1 | 1000 mg/kg
CC(=O)C1(O)CCC(c2ccccc2)CC1 (stereo not given) | 8000 mg/kg
C=C(C)C(=O)OCCOC(=O)C(=C)C | 3300 mg/kg
CCCN(CCC)c1c([N+](=O)[O-])cc(C(F)(F)F)cc1[N+](=O)[O-] | 1930 mg/kg
COC(=O)OC | 13000 mg/kg
CCCOC(N)=O | 1880 mg/kg
Clc1ccc2ncoc2c1 | 791 mg/kg
Cc1c(C)c(C)c2[nH]c(C(F)(F)F)nc2c1C | 58 mg/kg
C=C(C)CC#N | 540 mg/kg
CC(C)(C)CC(C)(C)SSSSCC(C)(CC(C)(C)C)SSSSC(C)(C)CC(C)(C)C (stereo not given) | 3640 mg/kg
FC(F)(F)c1ccc(Cl)cc1Cl | 2150 mg/kg
C=CCSCC1(C(C)CCC)C(=O)N=C(O)NC1=O (stereo not given) | 702 mg/kg
CNS(=O)(=O)c1cc(OC)c(N)cc1C | 91.5 mg/kg

Compound | LD50
CC(C)(C)NCC(O)c1ccccc1Cl (stereo not given) | 560 mg/kg
CO[Si](CCCNCCC[Si](OC)(OC)OC)(OC)OC | 3780 mg/kg
Cc1cc(C)c(N)cc1C | 1250 mg/kg and 1580 mg/kg
CC(C)(O)c1ccccc1 | 1300 mg/kg
COc1ccc(C=CC(=O)OCCC(C)C)cc1 | 9600 mg/kg
CC(=O)Oc1ccc(Oc2c(I)cc(C(=O)O)cc2I)cc1I | 4600 mg/kg
CCC(O)OC(C)(C)C (stereo not given) | 2520 mg/kg
N#CC(CCN1CCC(C(N)=O)(N2CCCCC2)CC1)(c1ccccc1)c1ccccc1 | 320 mg/kg
C[C@]12CC[C@@H]3c4ccc(OC(=O)N(CCCl)CCCl)cc4CC[C@H]3[C@@H]1CC[C@@H]2OP(=O)(O)O | 5400 mg/kg
CCN(CC)CCOc1ccccc1C(=O)CCc1ccccc1 | 716 mg/kg
CC(=O)Oc1ccc(C2(c3ccc(OC(C)=O)cc3)C(=O)N(C(C)=O)c3ccccc32)cc1 | 500 mg/kg
N#C[Se]Cc1ccccc1 | 98.5 mg/kg
CN1CCC(n2[nH]c(-c3ccccc3)c(Cc3ccccc3)c2=O)CC1 | 2700 mg/kg
CC[C@]1(CO)CCCN2CCc3c([nH]c4ccccc34)[C@@H]21 | 1200 mg/kg
CCCCCCCCOP(=O)(O)OCCC(Cl)Cl | 10300 mg/kg
CC(C)(C)c1cc(O)ccc1O | 700 mg/kg
CC(C)COC(=O)C(C)Oc1ccc(Oc2ccc(Cl)cc2)cc1 (stereo not given) | 723 mg/kg
CC(=O)OC(C(=O)NC(N)=O)c1ccccc1 (stereo not given) | 2100 mg/kg
Cc1nc(-c2cccnc2)sc1[N+](=O)[O-] | 815 mg/kg
CCc1c(C)nc2c(C)cccn2c1=O | 820 mg/kg
CCN(CC)CCN(CCN(CC)CC)n1cc(-c2ccccc2)c2ccccc21 | 800 mg/kg
CO[C@@H]1[C@@H](O[C@@H]2O[C@H](C)[C@@H](O[C@H]3C[C@@](C)(O)[C@@H](OC(=O)CC(C)C)[C@H](C)O3)[C@H](N(C)C)[C@H]2O)[C@@H](CC=O)C[C@@H](C)[C@@H](O)C=CC=CC[C@@H](C)OC(=O)C[C@H]1O | 6990 mg/kg
